Reference: ChEMBL document CHEMBL5523725, “Fragment-Based Anti-inflammatory Agent Design and Target Identification: Discovery of AF-45 as an IRAK4 Inhibitor to Treat Ulcerative Colitis and Acute Lung Injury” (J Med Chem, 2024)
pIC50: −log10 of the molar value. Activity calls are given as the source filed them. No cut-off for these calls is given here.

Assays:
[1] = Tmax in male Sprague-Dawley rat at 1 mg/kg, iv administered via tail vein and measured upto 24 hrs; assay type: ADME, organism-based; conditions: in vivo
[2] = test system: Mus musculus; test: In vivo binding affinity to IRAK4 in DSS-induced ulcerative colitis C57BL/6 mouse colon assessed as thermal stabilization at 10 to 20 mg/kg, po administered for 11 days with subsequent administration of DSS for 8 days by CETSA; assay type: functional, organism-based; conditions: dose 10-20 mg/kg, time 11.0 day
[3] = test system: RAW264.7; test: Inhibition of NFkappaB signaling pathway in LPS-induced mouse RAW264.7 cells assessed as inhibition of IkappaBalpha degradation by Western blot analysis; assay type: cell-based; conditions: dose 2.5-10 µM
[4] = test system: J774.A1; test: cells; conditions: Mus musculus
Description: Antiinflammatory activity in LPS-induced mouse J774.A1 cells assessed as inhibition of IL-6 release pretreated for 30 mins followed by LPS stimulation and measured after 24 hrs by ELISA

[5] = test system: Mus musculus; test: Antiinflammatory activity in LPS induced ip dosed C57BL/6 mouse model of acute lung injury assessed as reduction in […] of lung preadministered for 30 mins followed by LPS administration and measured after 6 hrs; assay type: functional, organism-based; conditions: dose 20-40 mg/kg, time 6.5 hrs
[6] = Tmax in male Sprague-Dawley rat at 10 mg/kg, po measured upto 24 hrs; assay type: ADME, organism-based; conditions: in vivo
[7] = test system: RAW264.7; test: Inhibition of NFkappaB signaling pathway in LPS-induced mouse RAW264.7 cells assessed as inhibition of p65 entry into nucleus pretreated for 2 hrs followed by LPS stimulation and measured after 15 mins by immunofluorescence staining based analysis; assay type: cell-based; conditions: time 135.0 min
[8] = test system: J774.A1; test: cells; conditions: Mus musculus; remark: listed apart in the source
Description: Antiinflammatory activity in LPS-induced mouse J774.A1 cells assessed as inhibition of TNF-alpha release pretreated for 30 mins followed by LPS stimulation and measured after 24 hrs by ELISA

[9] = Half life in male Sprague-Dawley rat at 1 mg/kg, iv administered via tail vein and measured upto 24 hrs; assay type: ADME, organism-based; conditions: in vivo
[10] = test system: RAW264.7; test: cells; conditions: Mus musculus
Description: Antiinflammatory activity in LPS-induced mouse RAW264.7 cells assessed as inhibition of IL-6 release pretreated for 30 mins followed by LPS stimulation and measured after 24 hrs by ELISA

[11] = test system: Mus musculus; test: Antiinflammatory activity in male C57BL/6 mouse model of DSS-induced ulcerative colitis assessed as reversal of invisible pulp structure at 10 to 20 mg/kg, po administered for 11 days with subsequent administration of DSS for 8 days by H and E staining based analysis; assay type: functional, organism-based; conditions: dose 10-20 mg/kg, time 11.0 day
[12] = test system: Mus musculus; test: Antiinflammatory activity in male C57BL/6 mouse model of DSS-induced ulcerative colitis assessed as reduction in macrophage infiltration in colon at 10 to 20 mg/kg, po administered for 11 days with subsequent administration of DSS for 8 days by F4/80 labeling based immunohistochemistry analysis; assay type: functional, organism-based; conditions: dose 10-20 mg/kg, time 11.0 day
[13] = test system: Mus musculus; test: Antiinflammatory activity in male C57BL/6 mouse model of DSS-induced ulcerative colitis assessed as preservation of goblet cells at 10 to 20 mg/kg, po administered for 11 days with subsequent administration of DSS for 8 days by H and E staining based analysis; assay type: functional, organism-based; conditions: dose 10-20 mg/kg, time 11.0 day
[14] = Half life in male Sprague-Dawley rat at 10 mg/kg, po measured upto 24 hrs; assay type: ADME, organism-based; conditions: in vivo
[15] = test system: RAW264.7; test: Antiinflammatory activity in LPS-induced mouse RAW264.7 cells assessed as inhibition of IL-6 release at 10 uM pretreated for 30 mins followed by LPS stimulation and measured after 24 hrs by ELISA relative to control; assay type: functional; conditions: time 24.5 hrs
[16] = biological target: Mitogen-activated protein kinase 14 (Homo sapiens) (UniProt Q16539); test: Inhibition of p38alpha (unknown origin) at 10 uM relative to control
[17] = biological target: T1, Lymphocyte antigen 96 (Mus musculus) (UniProt Q9JHF9); test: Thermal stabilization of MD2 in mouse RAW264.7 cells assessed as reduction in decomposition at 10 uM at 45 to 51 degreeC measured after 4 hrs by CETSA; assay type: cell-based
T1 sequence (whole entry): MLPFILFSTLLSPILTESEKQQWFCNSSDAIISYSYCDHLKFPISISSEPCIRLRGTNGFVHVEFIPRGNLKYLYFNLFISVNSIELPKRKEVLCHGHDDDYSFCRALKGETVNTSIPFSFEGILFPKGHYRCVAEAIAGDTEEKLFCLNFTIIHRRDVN

[18] = Cmax in male Sprague-Dawley rat at 1 mg/kg, iv administered via tail vein and measured upto 24 hrs; assay type: ADME, organism-based; conditions: in vivo
[19] = test system: Mus musculus; test: Antiinflammatory activity in LPS induced C57BL/6 mouse model of acute lung injury assessed as reduction in macrophage infiltration in lung at 20 to 40 mg/kg, ip preadministered for 30 mins followed by LPS administration and measured after 6 hrs by F4/80 labeling based immunohistochemical analysis; assay type: functional, organism-based; conditions: dose 20-40 mg/kg, time 6.5 hrs
[20] = test system: RAW264.7; test: Antiinflammatory activity in LPS-induced mouse RAW264.7 cells assessed as inhibition of IL-6 mRNA transcription pretreated for 2 hrs followed by LPS stimulation and measured after 6 hrs by RT-qPCR analysis; assay type: functional, cell-based; conditions: dose 5-10 µM, time 8.0 hrs
[21] = AUC (0 to t) in male Sprague-Dawley rat at 10 mg/kg, po measured upto 24 hrs; assay type: ADME, organism-based; conditions: in vivo
[22] = Cytotoxicity against mouse RAW264.7 cells assessed as cell viability by MTT assay; assay type: toxicity, cell-based; parameters: concentration or dose not given beside the values; conditions: read-out: Activity
[23] = test system: Mus musculus; test: Antiinflammatory activity in male C57BL/6 mouse model of DSS-induced ulcerative colitis assessed as reversal of ruptured spleen at 10 to 20 mg/kg, po administered for 11 days with subsequent administration of DSS for 8 days by H and E staining based analysis; assay type: functional, organism-based; conditions: dose 10-20 mg/kg, time 11.0 day
[24] = biological target: T2, Interleukin-1 receptor-associated kinase 4 (Mus musculus) (UniProt Q8R4K2); test: Thermal stabilization of IRAK4 in mouse RAW264.7 cells at 10 uM measured after 4 hrs by CETSA; assay type: cell-based
T2 sequence (whole entry): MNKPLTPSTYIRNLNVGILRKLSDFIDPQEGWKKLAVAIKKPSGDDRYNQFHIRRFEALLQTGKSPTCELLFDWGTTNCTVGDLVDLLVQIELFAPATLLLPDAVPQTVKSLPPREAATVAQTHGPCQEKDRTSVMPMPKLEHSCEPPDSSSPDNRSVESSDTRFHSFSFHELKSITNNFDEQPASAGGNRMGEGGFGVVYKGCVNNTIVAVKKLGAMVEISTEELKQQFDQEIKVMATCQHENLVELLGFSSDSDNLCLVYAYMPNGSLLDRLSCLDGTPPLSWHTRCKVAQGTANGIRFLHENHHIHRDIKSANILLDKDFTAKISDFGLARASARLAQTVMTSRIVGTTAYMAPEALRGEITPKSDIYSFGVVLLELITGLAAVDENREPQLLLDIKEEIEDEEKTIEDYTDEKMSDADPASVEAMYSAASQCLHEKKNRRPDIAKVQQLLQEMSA

[25] = AUC (0 to t) in male Sprague-Dawley rat at 1 mg/kg, iv administered via tail vein and measured upto 24 hrs; assay type: ADME, organism-based; conditions: in vivo

Mitogen-activated protein kinase 14 (Homo sapiens), sequence (Q16539 whole entry): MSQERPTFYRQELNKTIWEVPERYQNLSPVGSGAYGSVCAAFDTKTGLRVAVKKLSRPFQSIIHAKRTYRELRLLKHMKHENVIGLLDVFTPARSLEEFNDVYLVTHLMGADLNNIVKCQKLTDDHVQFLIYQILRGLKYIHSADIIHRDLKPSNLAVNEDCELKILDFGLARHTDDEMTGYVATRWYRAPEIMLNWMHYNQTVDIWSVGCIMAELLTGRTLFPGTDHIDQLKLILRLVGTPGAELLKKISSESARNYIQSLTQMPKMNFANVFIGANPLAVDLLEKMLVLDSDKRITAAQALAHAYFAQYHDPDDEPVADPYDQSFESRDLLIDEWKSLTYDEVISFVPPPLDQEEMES

For `COc1cc2c(O[C@H]3CC[C@@H](N)CC3)ncnc2cc1OCc1ccccc1`, the Tmax [1] was 4.8 min, the Activity [2] was “Active” and the inhibition [3] was “Dose-Dependent Effect”. The pIC50 [4] was 5.81, the Activity [5] was “Dose-Dependent Effect” and the Tmax [6] was 3 h. For the same compound, the inhibition [7] was “Active”, the pIC50 [8] was 5.56 and the half-life [9] was 2.8 h. For the same compound, the pIC50 [10] was 5.90, the Activity [11] was “Active” and the Activity [12] was “Active”. The Activity [13] was “Active”, the half-life [14] was 5.6 h and the inhibition at 10 µM [15] was 92.4%. The inhibition [16] was 0.03%, the Activity [17] was “inactive” and the Cmax [18] was 6260 ng/mL. The Activity [19] was “Active”, the Activity [20] was “Dose-Dependent Effect” and the AUCt [21] was 10653.6 ng·h/mL. For the same compound, the viability [22] was 98.2%, the Activity [23] was “Active” and the Activity [24] was “Active”. For the same compound, the AUC(0-t) at 24 h [25] was 3800 ng·h/mL.
